Assay results published in patent US20230332197A1, “NUCLEOSIDES AND NUCLEOTIDES WITH 3' VINYL BLOCKING GROUP” (Illumina Singapore Pte. Ltd., priority 2022, published 2023).

Experiments:
[1] = Preliminary deblocking test of 3′ vinyl group with tetrazine reagent, HPLC UV absorption at 280 nm; type: physicochemical; conditions: 50 μM substrate, 5 mM methyltetrazine propylamine HCl, 0 to 60 Secs
Method: 50 μM of 3′ vinyl thymidine monophosphate (TMP) was deblocked in the presence of 5 mM of methyltetrazine propylamine HCl.

Pol 1558 = test: Template-dependent incorporation of nucleotide into primer strand by DNA polymerase, gel electrophoresis; type: biochemical, 9° N; conditions: Pol 1558 0.12 mg/mL, Mg2+ approximately 4 mM, 60° C. for 10 minutes
Text: (§1) In this incorporation experiment, several DNA polymerases were used to test the feasibility of incorporating a 3′vinyl dTTP into a primer strand through template-dependent synthesis. For each test, 3′vinyl dTTP or an unblocked dTTP was exposed to one polymerase in the presence of a template strand having five A nucleotides overhang at the 5′ end, and the complementary primer strand has a fluorescent tag (FAM) at the 5′ end for visualization purposes. The DNA polymerases tested were Pol 812, Pol 963, Pol 1558, and Pol 1901, each at 0.12 mg/mL. The amino acid sequences of these mutants of 9° N polymerases are disclosed, for example, in U.S. Patent Publication Nos. 2020/0131484 A1 and 2020/0181587 A1, both of which are incorporated by reference herein in their entireties. The nucleotides include a 3′vinyl dTTP
(§2) The negative control nucleotide included a vinyl blocking group attached to the nitrogen atom of the T base typically involved in base-pair binding. Thus, it was expected that the negative control nucleotide would not be able to bind with the available adenosine bases of the template strand. The unaltered dTTP, on the other hand, was expected to be incorporated into the primer strand and could therefore act as a control for 5 incorporations.
(§3) For each test reaction, Mg^2+ concentration was at approximately 4 mM, while the polymerase of choice was at a concentration of 0.12 mg/mL. The reactions also had 20 μmol of nucleotide, nucleotide 1 or nucleotide 2 as diagrammed, and 4 μmol of the template strand (SEQ ID No. 1) and 4 μmol of the primer strand (SEQ ID No. 2). The reaction was carried at 60° C. for 10 minutes.
(§4) Lanes 4, 7, 10, and 13 show the nucleic acids formed when nucleotide 1 was available. Lanes 5, 8, 11, and 14 show the nucleic acids formed when nucleotide 2 was available. Lanes 6, 9, 12, and […] show the nucleic acids formed when unaltered dTTP was available.

Pol 1901 = test: as above; type: biochemical, 9° N; conditions: Pol 1901 0.12 mg/mL, Mg2+ approximately 4 mM, 60° C. for 10 minutes
Text: as §1, §2, §3, §4

Pol 812 = test: as above; type: biochemical, 9° N; conditions: Pol 812 0.12 mg/mL, Mg2+ approximately 4 mM, 60° C. for 10 minutes
Text: as §1, §2, §3, §4

[2] = biological target: T1, commercially available TdT (Bos taurus, UniProt P06526); test: Template-independent enzymatic synthesis of oligonucleotides with TdT, gel electrophoresis; type: biochemical; conditions: for nucleic acid formed from primer by TdT (extent of nucleotide addition): 5 or 10 minutes at room temperature
T1 construct: purchased
T1 sequence (P06526 whole entry): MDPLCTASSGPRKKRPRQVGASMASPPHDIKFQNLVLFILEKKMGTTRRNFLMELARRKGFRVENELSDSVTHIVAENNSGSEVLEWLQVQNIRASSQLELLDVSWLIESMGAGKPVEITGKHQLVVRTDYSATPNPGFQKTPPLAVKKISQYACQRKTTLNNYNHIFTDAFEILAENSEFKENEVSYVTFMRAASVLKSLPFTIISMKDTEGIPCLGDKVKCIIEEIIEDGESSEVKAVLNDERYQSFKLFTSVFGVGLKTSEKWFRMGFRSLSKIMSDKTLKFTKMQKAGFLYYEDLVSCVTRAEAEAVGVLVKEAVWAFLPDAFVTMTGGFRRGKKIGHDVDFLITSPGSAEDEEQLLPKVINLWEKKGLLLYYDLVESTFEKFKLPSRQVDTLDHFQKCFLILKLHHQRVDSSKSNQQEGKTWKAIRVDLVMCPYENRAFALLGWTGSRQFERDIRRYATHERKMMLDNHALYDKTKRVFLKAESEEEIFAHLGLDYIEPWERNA
Method: A preliminary test of template-independent synthesis of oligonucleotides using a commercially available TdT was conducted. A primer strand with a FAM fluorescent tag at the 5′ end (SED ID No. 2) was introduced.
Three different nucleotides were included, depending on the test condition: a 3′ vinyl blocked dTTP (“3VT”), a 3′-vinyl blocked dTTP that is pre-heated at 60° C. for 5 minutes (“HVT”), and an unaltered dTTP with 3′ hydroxy (“dT”). HVT condition was used to test the thermal stability of the nucleotide. Each nucleotide was allowed to react with the template in the presence of the TdT for 5 or 10 minutes at room temperature.
A control was run simultaneously, which included a primer with one added nucleotide. […] Without being bound to a particular theory, it is believed that the 3′ blocking group on the 3VT nucleotide prevented synthesis beyond the addition of one nucleotide.

[3] = system: DNA polymerases Pol 812, Pol 963, Pol 1558, and Pol 1901; test: Template-dependent incorporation of nucleotide into primer strand by DNA polymerases, gel electrophoresis; type: biochemical, 9° N; conditions: polymerase 0.12 mg/mL, Mg2+ approximately 4 mM, 60° C. for 10 minutes, template with five A overhang
Text: as §1, §2
For each test reaction, Mg^2+ concentration was at approximately 4 mM, while the polymerase of choice was at a concentration of 0.12 mg/mL. […]

SMILES | deblocking of 3′ vinyl group to 3′OH TMP over time [1] | capability of incorporating the nucleotide into the primer strand, compared among the four polymerases (Pol 1558) | capability of incorporating the nucleotide into the primer strand, compared among the four polymerases (Pol 1901) | capability of incorporating the nucleotide into the primer strand, compared among the four polymerases (Pol 812) | nucleic acid formed from primer by TdT (extent of nucleotide addition) [2] | nucleic acid formed from primer by TdT after pre-heating of the nucleotide (thermal stability) ([2]; nucleotide pre-heated at 60° C. for 5 minutes, reaction 5 or 10 minutes at room temperature) | number of nucleotides incorporated into the primer strand [3]
C=C[C@]1(O)C[C@H](n2cc(C)c(=O)[nH]c2=O)O[C@@H]1COP(=O)(O)O [3′ vinyl thymidine monophosphate (TMP), 3′ vinyl thymidine monophosphate] | all of the 3′vinyl TMP have been consumed or deblocked |  |  |  |  |  | 
C=CO[C@H]1C[C@H](n2cc(C)c(=O)[nH]c2=O)O[C@@H]1COP(=O)(O)OP(=O)(O)OP(=O)(O)O [nucleotide 1] |  | best performance | least capable of the four | best performance | addition of just one additional nucleotide | addition of just one additional nucleotide | 
Cc1cn([C@H]2C[C@H](O)[C@@H](COP(=O)(O)OP(=O)(O)OP(=O)(O)O)O2)c(=O)[nH]c1=O [unaltered dTTP, Deoxythymidine triphosphate, reference compound] |  |  |  |  | much longer nucleic acids |  | ≤ 5
